Reference: ChEMBL document CHEMBL1128725, “Design and synthesis of 1-heteroaryl-3-(1-benzyl-4-piperidinyl)propan-1-one derivatives as potent, selective acetylcholinesterase inhibitors” (J Med Chem, 1995)

Legend:
[1] = molecular target: Cholinesterase (Homo sapiens, UniProt P06276)
Description: Concentration required to inhibit 50% of Butyrylcholinesterase obtained from human serum was determined in vitro

[2] = molecular target: Acetylcholinesterase (Homo sapiens, UniProt P22303)
Chain of Acetylcholinesterase (P22303 whole entry): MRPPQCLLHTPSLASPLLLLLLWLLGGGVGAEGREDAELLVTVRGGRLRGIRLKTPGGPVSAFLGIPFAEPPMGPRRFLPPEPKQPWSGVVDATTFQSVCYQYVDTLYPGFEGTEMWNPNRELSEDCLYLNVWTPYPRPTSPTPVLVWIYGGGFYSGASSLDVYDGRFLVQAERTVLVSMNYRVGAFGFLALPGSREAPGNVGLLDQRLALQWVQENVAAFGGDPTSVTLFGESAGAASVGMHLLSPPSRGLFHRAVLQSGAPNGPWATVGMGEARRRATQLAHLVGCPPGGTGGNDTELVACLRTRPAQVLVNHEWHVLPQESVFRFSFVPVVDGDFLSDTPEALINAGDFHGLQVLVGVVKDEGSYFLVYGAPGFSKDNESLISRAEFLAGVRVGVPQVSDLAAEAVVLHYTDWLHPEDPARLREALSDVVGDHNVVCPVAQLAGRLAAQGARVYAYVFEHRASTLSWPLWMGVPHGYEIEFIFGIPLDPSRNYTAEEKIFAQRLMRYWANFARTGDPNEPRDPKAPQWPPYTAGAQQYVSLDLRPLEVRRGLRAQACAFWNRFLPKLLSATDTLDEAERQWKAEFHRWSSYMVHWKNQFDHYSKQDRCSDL
Description: Concentration required to inhibit 50% of Acetylcholinesterase obtained from human erythrocytes was determined in vitro

Chain of Cholinesterase (P06276 whole entry): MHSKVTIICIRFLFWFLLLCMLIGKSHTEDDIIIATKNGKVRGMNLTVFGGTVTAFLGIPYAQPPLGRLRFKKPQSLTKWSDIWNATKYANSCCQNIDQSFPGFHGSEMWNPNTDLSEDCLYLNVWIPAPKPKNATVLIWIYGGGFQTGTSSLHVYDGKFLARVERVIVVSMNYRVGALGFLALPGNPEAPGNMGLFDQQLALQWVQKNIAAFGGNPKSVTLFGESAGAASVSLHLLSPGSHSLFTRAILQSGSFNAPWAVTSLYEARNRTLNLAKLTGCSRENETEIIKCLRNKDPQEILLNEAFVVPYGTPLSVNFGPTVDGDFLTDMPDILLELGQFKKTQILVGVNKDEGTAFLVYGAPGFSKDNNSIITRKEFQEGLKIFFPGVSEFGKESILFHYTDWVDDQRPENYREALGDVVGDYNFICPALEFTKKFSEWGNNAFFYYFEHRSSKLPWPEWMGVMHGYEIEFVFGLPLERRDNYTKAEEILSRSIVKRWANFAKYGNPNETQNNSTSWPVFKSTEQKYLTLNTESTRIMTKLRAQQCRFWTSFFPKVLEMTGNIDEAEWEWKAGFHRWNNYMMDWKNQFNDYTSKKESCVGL

Q: What does the source list for `O=C(CCC1CCN(Cc2ccccc2)CC1)c1ccc2[nH]c(-c3ccccc3)nc2c1`?
A: IC50 [1]: 890 nM; IC50 [2]: 33 nM

Q: Which IC50 [1] does the source give for `Cc1nc2cc(C(=O)CCC3CCN(Cc4ccccc4)CC3)ccc2[nH]1` here?
A: 6200 nM

Q: What about the IC50 [2] of the same compound?
A: 12 nM

Q: `Cc1nc2ccc(C(=O)CCC3CCN(Cc4ccccc4)CC3)cc2s1` was tested. Which IC50 [1] did it give?
A: 3400 nM

Q: What about the IC50 [2] of the same compound?
A: 6.8 nM

Q: How did the IC50 [1] turn out when `O=C(CCC1CCN(Cc2ccccc2)CC1)c1ccccc1` was run?
A: 4300 nM

Q: For `CCn1c(C)nc2cc(C(=O)CCC3CCN(Cc4ccccc4)CC3)ccc21`, which IC50 [1] is on record?
A: 4200 nM

Q: And the IC50 [2]?
A: 4.3 nM

Q: Which results are given for `O=C(CCC1CCN(Cc2ccccc2)CC1)c1ccc2c(c1)OCCO2`?
A: IC50 [1]: 4800 nM; IC50 [2]: 30 nM
